According to US10036047B2, “Methods for hydroxylating phenylpropanoids” (University of Georgia Research Foundation, Inc., priority 2013, dated 2018):
“And” between values parts separate entries of the source, which are not always exact repeats. Equal entries are not always repeated. Where two headings read alike, the source gives them in different places.

Tests used:
HpaBC [1] = molecular target: T1, HpaBC (Escherichia coli, UniProt Q57160); assay: Whole-cell biocatalysis with E. coli cells over-expressing HpaBC; format: cell-based; details: for whole cell bioconversion of substrate into hydroxylated product: 500 mg/L substrate, about 3.3 g/L DCW, in 3 h
T1 construct: expressed in transfected cells; host or cells: E. coli strain harboring pZE-HpaBC
Experimental: The E. coli strain harboring pZE-HpaBC was first cultivated in 50 ml LB liquid medium at 37° C. till OD600 values reached 0.6. Then the cells were transferred to 30° C. and induced with 0.5 mM IPTG for additional 6 hours. After that, cells were harvested, re-suspended in 15 ml M9Y medium (0D600=9.6), and incubated in a rotary shaker at 300 rpm. […] When the substrate concentrations fell below 0.5 g/L, additional 1 g/L substrates were supplemented. […] Samples were taken every few hours and analyzed by HPLC.
Whole-cell biocatalysis is an efficient and economical way to scale up enzyme-catalyzed reactions.
T1 sequence (Q57160 whole entry): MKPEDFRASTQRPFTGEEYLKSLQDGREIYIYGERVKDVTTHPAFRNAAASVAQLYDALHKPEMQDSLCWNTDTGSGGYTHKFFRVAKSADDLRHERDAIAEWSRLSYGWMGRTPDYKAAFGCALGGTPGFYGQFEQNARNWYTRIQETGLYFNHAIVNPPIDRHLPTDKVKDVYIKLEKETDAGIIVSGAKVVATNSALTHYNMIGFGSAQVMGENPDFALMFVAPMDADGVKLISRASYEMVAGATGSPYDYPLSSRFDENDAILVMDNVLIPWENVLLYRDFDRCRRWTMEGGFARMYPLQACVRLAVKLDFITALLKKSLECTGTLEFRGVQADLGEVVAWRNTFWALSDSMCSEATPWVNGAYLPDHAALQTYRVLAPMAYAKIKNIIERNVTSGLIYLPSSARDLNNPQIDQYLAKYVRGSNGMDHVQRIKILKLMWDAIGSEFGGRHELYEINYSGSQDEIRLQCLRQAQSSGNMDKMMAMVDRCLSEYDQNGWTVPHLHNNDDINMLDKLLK

HpaBC [2] = molecular target: T2, HpaBC (Escherichia coli, UniProt Q57160); format: biochemical; details: for kcat: kcat=Vmax/[E]
T2 sequence (Q57160 2-520): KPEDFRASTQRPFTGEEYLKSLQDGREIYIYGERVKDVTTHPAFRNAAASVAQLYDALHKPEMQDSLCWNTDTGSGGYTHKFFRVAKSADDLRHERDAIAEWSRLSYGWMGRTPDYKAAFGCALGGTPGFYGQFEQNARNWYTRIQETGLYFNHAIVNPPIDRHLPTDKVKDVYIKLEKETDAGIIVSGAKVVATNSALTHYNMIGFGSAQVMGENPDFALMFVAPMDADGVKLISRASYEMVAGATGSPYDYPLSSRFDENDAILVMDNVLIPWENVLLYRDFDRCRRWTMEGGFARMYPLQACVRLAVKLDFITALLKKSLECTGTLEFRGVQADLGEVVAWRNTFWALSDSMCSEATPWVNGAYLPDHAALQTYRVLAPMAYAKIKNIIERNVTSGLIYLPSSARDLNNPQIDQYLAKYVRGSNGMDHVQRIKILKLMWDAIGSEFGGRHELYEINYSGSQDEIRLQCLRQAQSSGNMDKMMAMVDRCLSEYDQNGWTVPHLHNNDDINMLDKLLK
Experimental: The E. coli strain was transformed with pZE-His7HpaB and pZE-His7HpaC separately. The fresh transformants were pre-inoculated in LB medium containing 100 μg/ml ampicillin and grown at 37° C. aerobically overnight. In the following day, the pre-inoculums were transferred into 50 ml of fresh LB medium at a ratio of 1:100. The cultures were cultivated at 37° C. till the OD600 values reached about 0.6 and then induced by 0.5 mM IPTG. […] The BCA kit (Pierce Chemicals) was used to estimate protein concentrations. […] The HpaBC enzyme assays were carried out according to the protocol described by Louie et al. with minor modifications (Louie et al., 2003. Biochemistry (Mosc) 42(24):7509-17). The 1 ml reaction system contains KPi Buffer (20 mM, pH=7.0), FAD (10 μM), NADH (1 mM), HpaB (0.5 μM), HpaC (0.5 μM), substrates (from 10 to 1000 μM). […] The reaction rates were calculated according to the product formation and substrate consumption, which were measured by HPLC. Apparent kinetic parameters were determined by non-linear regression of the Michaelis-Menten equation using OriginPro8™.
We further investigated and compared the kinetic parameters of HpaBC towards its native substrate 4HPA and the 3 non-native substrates. To do these, a multi-histidine tag was fused to the N-terminus of HpaB and HpaC, which were subsequently over-expressed and purified from E. coli. The enzyme complex was reconsituted in vitro for enzyme assays (FIG. 5).

HpaBC [3] = molecular target: T1, HpaBC; assay: HpaBC substrates screening: feeding of E. coli strain over-expressing HpaBC; format: cell-based; details: 200 mg/L substrate, additional 10 hour incubation
Experimental: The E. coli strain harboring pZE-HpaBC was pre-inoculated into LB liquid medium containing ampicillin (100 μg/ml) and grown overnight at 37° C. Then 200 μl of the inoculum was transferred into 20 ml of fresh M9Y medium. The E. coli cells were grown at 37° C. till the OD600 values reached around 0.6 and then transferred to 30° C. and induced by 0.5 mM IPTG.
As the initial step towards examining the activity, we constructed a high-copy number plasmid co-expressing hpaB and hpaC (pZE-HpaBC) and introduced it into E. coli. The resulting strain was cultivated and induced with IPTG for enzyme expression for 3 hours, after which 200 mg/L of substrate was added into the cultures. After additional 10 hour incubation, we analyzed the cell-free broth by HPLC. […] We further used naringenin to explore the substrate tolerance limit of HpaBC. […] The three new peaks were collected from HPLC for mass spectrum analysis.

HpaBC [4] = molecular target: T1, HpaBC; details: from p-coumaric acid; cited from earlier work
[5] = substrate: O=c1ccc2ccc(O)cc2o1; assay: purified protein, by the assay type; details: other: apparent, HpaB 0.5 μM, HpaC 0.5 μM, pH 7.0, 30° C.
[6] = substrate: Oc1ccc(/C=C/c2cc(O)cc(O)c2)cc1; assay: purified protein, by the assay type; details: other: apparent, HpaB 0.5 μM, HpaC 0.5 μM, pH 7.0, 30° C.

In the case of `O=c1ccc2cc(O)c(O)cc2o1` (single isomer, unassigned) [esculetin], the maximum product titer (HpaBC [1]; end of 18 h, fed substrate, 1.5 mM ascorbic acid) is reported as 2.7 g/L and 15.5 mM and the “highest hydroxylation rate (product formation)” value (HpaBC [1]; initial 2 h, 1.5 g/L initial substrate) is reported as 298.1 μM/h/OD.

With `O=c1ccc2ccc(O)cc2o1` [Umbelliferone, umbelliferone] the kcat (HpaBC [2]; apparent, pH 7.0, 30° C.) was 0.0667 s⁻¹, the “substrate consumption in culture (HPLC)” value (HpaBC [3]) was “completely consumed” and the “whole cell bioconversion of substrate into hydroxylated product” value (HpaBC [1]) was “completely converted”. For the same molecule, the “whole-cell conversion efficiency relative to resveratrol” value (HpaBC [1]; umbelliferone vs resveratrol) was “about 3 fold”.

For `O=C(O)/C=C/c1ccc(O)c(O)c1` [caffeic acid], the “caffeic acid production titer” value (HpaBC [4]) is given as 3.82 g/L and 21.2 mM.

In the case of `O=C1C[C@@H](c2ccc(O)cc2)Oc2cc(O)cc(O)c21` [naringenin], the “activity of HpaBC towards substrate” value (HpaBC [2]; kinetic parameters not determined) is reported as “low activity” and the “substrate consumption in culture (HPLC)” value (HpaBC [3]) is reported as “majority of naringenin was left unconverted”.

`O=C(O)Cc1ccc(O)cc1` [4-HPA, 4-hydroxyphenylacetate, reference compound] showed a Km (HpaBC [2]; apparent, HpaB 0.5 μM, HpaC 0.5 μM, pH 7.0, 30° C.) of 18.4 µM, a kcat (HpaBC [2]; apparent, pH 7.0, 30° C.) of 1.08 ± 0.015 s⁻¹ and a kcat (HpaBC [2]; apparent, pH 7.0, 30° C., listed as 4HPA) of 1.08 s⁻¹.

For `Oc1ccc(/C=C/c2cc(O)cc(O)c2)cc1` [Resveratrol, 3,5,4′-trihydroxy-trans-stilbene], the kcat (HpaBC [2]; apparent, pH 7.0, 30° C.) was 0.0933 s⁻¹, the “substrate consumption in culture (HPLC)” value (HpaBC [3]) was “completely consumed” and the “whole cell bioconversion of substrate into hydroxylated product” value (HpaBC [1]) was “completely converted”.

For `O=C1C[C@@H](c2ccc(O)c(O)c2)Oc2cc(O)cc(O)c21` (single isomer, unassigned) [eriodictyol], the product generated (HpaBC [1]; 150 mg/L naringenin fed, 10 h) was 16.7 mg/L and 58 μM.

B1: HpaBC (Escherichia coli) (protein)
chain: T2 sequence (Q57160 2-520)
B1 gave a Km [5] of 262.2 µM, a kcat [5] of 0.0667 s⁻¹ and a kcat/Km [5] of 254 M⁻¹ s⁻¹. For the same molecule, the Km [6] was 145.1 µM, the kcat [6] was 0.0933 s⁻¹ and the kcat/Km [6] was 643 M⁻¹ s⁻¹.
